From US20070248996A1, “Modulators of beta-amyloid peptide aggregation comprising D-amino acids” (Paraecis Pharmaceuticals, Inc., priority 1995, published 2007)
Read-outs that look alike come from different tables or passages of the source. Square brackets hold non-standard residues; d marks the D form. Peptide text beside a SMILES is read from it. * marks the point of attachment. Acetyl(4-pyridyl) = O=C(Cc1ccncc1)*; Benzoyl(4-OH) = O=C(c1ccc(O)cc1)*; d3Pal = N[C@H](Cc1cccnc1)C(=O)O; Isonicotinoyl = O=C(c1ccncc1)*

Legend:
Aβ1-40 = Aβ1-40 (Homo sapiens, UniProt P05067); format: biochemical; design: ΔLag: unit not given here; settings: for ΔLag: Table XI; for ΔLag 0.5 μM / ΔLag 5.0 μM / ΔLag […]: Table VI; for ΔLag 5.0 μM: 5.0 μM test compound; for ΔLag […]: […] test compound
Text: The nucleation assay is employed to determine the ability of test compounds to alter (e.g. inhibit) the early events in formation of β-AP fibers from monomeric β-AP. Characteristic of a nucleated polymerization mechanism, a lag time is observed prior to nucleation, after which the peptide rapidly forms fibers as reflected in a linear rise in turbidity. The time delay before polymerization of β-AP monomer can be quantified as well as the extent of formation of insoluble fiber by light scattering (turbidity). Polymerization reaches equilibrium when the maximum turbidity reaches a plateau The turbidity of a solution of natural β-AP in the absence or presence of various concentrations of a β-amyloid modulator compound is determined by measuring the apparent absorbance of the solution at 405 nm (A405 nm) over time. The threshold of sensitivity for the measurement of turbidity is in the range of 15-20 μM β-AP. […] This assay can be performed using stirring or shaking to accelerate polymerization, thereby increasing the speed of the assay. Moreover the assay can be adapted to a 96-well plate format to screen multiple compounds.
HFIP-solubilized peptide is sonicated in a waterbath sonicator for 5 min at highest setting, then evaporated to dryness under a stream of argon. The peptide film is resuspended in anhydrous dimethylsulfoxide (DMSO) at a concentration of 6.9 mg/ml (25× concentration), sonicated for 5 min as before, then filtered through a 0.2 micron nylon syringe filter (VWR cat. No.28196-050). Test compounds are dissolved in DMSO at a 100× concentration. […] Ten microliters of the mixture is then added to the bottom of a well of a Corning Costar ultra low binding 96-well plate (Coming Costar, Cambridge Mass.; cat. No. 2500). Ninety microliters of water is added to the well, the plate is shaken on a rotary shaken at a constant speed at room temperature for 30 seconds, an additional 100 μl of 2× PTL buffer (20 mM NaH2PO4, 300 mM NaCl, pH 7.4) is added to the well, the plate is reshaken for 30 seconds and a baseline (t=0) turbidity reading is taken by measuring the apparent absorbance at 405 nm using a Bio-Rad Model 450 Microplate Reader. The plate is then returned to the shaker and shaken continuously for 5 hours. Turbidity readings are taken at 15 minute intervals.
β-amyloid aggregation in the absence of any modulators results in enhanced turbidity of the natural β-AP solution (i.e., an increase in the apparent absorbance at 405 nm over time). […]

[1] = Safety profile for PPI-558, daily subcutaneous injection for 14 days; settings: female rats, 3 and 30 mg/kg s.c. daily for 14 days
Method: On day 15, animals were sacrificed 1 hour post administration.

[2] = Brain uptake of tritium-labelled PPI-558 after subcutaneous injection; settings: male rats, single subcutaneous injection 4.6 mg/kg, 2 hours (FIG. 4)
Method: Male Sprague-Dawley rats (259-280 g) received a single subcutaneous injection in the nape of the neck (4.6 mg/kg at 1 ml/kg=4.6 mg/ml in 100% Sesame Oil). At various time points post administration (2, 8 and 24 hours; n=4/time point), the animlas were anesthetized. Trunk blood was taken to determine plasma levels of the parent compound and the left side of the brain was perfused with 1 ml of saline over 30 seconds via the left sommon carotid artery. The brain was rapidly removed and the left forebrain (perfused) was subjected to capillary depletion.

[3] = Modulator compound stability in cerebrospinal fluid; settings: 75% Rhesus monkey CSF, 37° C., 24 hours, HPLC; compared with PPI-368 (FIG. 1)
Method: The stability of a modulator compound in cerebrospinal fluid (CSF) can be assayed in an in vitro assay as follows. […] All sample handling is carried out in a laminar flow hood and test solutions are maintained at 37° C. during the assay. […] Samples (at the 0 time point and the 24 hour time point) are analyzed at room temperature using reverse-phase HPLC. A microbore column is used to maximize sensitivity. The parameters for analytical HPLC are as follows:
Chromatographic analysis is performed using a Hewlett Packard 1090 series II HPLC. The column used for separation is a C4, 5 μm, 1×250 mm (Vydac #214TP51). The flow rate is 50 μL/min and the elution profile of the test compounds is monitored at 214, 230, 260 and 280 nm.

[4] = Table III, modifying groups derived from bile acids, 5 μM test compound
[5] = Table IV, hydrophobic modifying groups, 5 μM test compound
[6] = Table V, hydroxylated and oxygenated modifying groups, 5 μM test compound
[7] = Table I, 5 μM Aβ1-40, 5 μM test compound, ratio of lag time to control

Chain of Aβ1-40 (P05067 672-711): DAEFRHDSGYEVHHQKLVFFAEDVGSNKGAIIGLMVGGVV

## 4-Hydroxybenzoyl-D-Leu-D-Val-D-Phe-D-Phe-D-Ala-NH2 [PPI-558]
Aβ1-40; Table VIII, 5 μM test compound
  ΔLag 5 μM: 2.0
[1]
  overt toxicity: No overt toxicity was observed
[2]
  ratio of brain versus plasma levels: almost twice

## Hyodeoxycholyl-LVFFA-oh [PPI-520]
Aβ1-40; [4]
  ΔLag 5 μM: >2.3
Aβ1-40; Table IX, 5 μM test compound
  ΔLag 5 μM: 1.5

## h-d(VFF)-oh [PPI-502]
Aβ1-40; [5]
  ΔLag 5 μM: 1.0

## 4-(2-Hydroxyphenyl)propionyl-d(AFFVL)-nh2 [PPI-611]
Aβ1-40; Table IX, 5 μM test compound
  ΔLag 5 μM: 3.2

## CC(C)C[C@@H](NC(=O)CC[C@@H](C)[C@H]1CC[C@H]2[C@@H]3[C@H](O)C[C@@H]4C[C@H](O)CC[C@]4(C)[C@H]3C[C@H](O)[C@]12C)C(=O)N[C@@H](C(=O)N[C@H](Cc1ccccc1)C(=O)N[C@H](Cc1ccccc1)C(=O)N[C@H](C)C(=O)O)C(C)C [PPI-433, cholyl-D-Leu-D-Val-D-Phe-D-Phe-D-Ala-OH]
[3]
  stability in cerebrospinal fluid: significantly greater stability in CSF than the L-amino acid-based compound

## CC(C)C[C@@H](NC(=O)[C@H](NC(=O)[C@@H](Cc1ccccc1)NC(=O)[C@@H](Cc1ccccc1)NC(=O)[C@@H](C)NC(=O)c1ccncc1)C(C)C)C(N)=O [PPI-732, Isonicotinoyl-d(AFFVL)-nh2] (Isonicotinoyl-[dA][dF][dF][dV][dL]-NH2)
Aβ1-40; 5 μM test compound
  ΔLag: <2

## 3,5-Dihydroxy-2-naphthoyl-d(LVFF)-nh2 [PPI-487]
Aβ1-40; [6]
  ΔLag 5 μM: 2.2

## cholyl-D-Leu-D-Val-D-Phe-D-Phe-D-Ala-NH2 [PPI-457]
Aβ1-40; [7]
  ΔLag 5 μM: >10
Aβ1-40; Table IX, 5 μM test compound
  ΔLag 5 μM: >6

## 4-Hydroxyphenylacetyl-d(FFFVL)-nh2 [PPI-651]
Aβ1-40; Table IX, 5 μM test compound
  ΔLag 5 μM: 2.1

## Dihphenylacetyl-d(LVFF)-nh2 [PPI-484]
Aβ1-40; [5]
  ΔLag 5 μM: 1.3

## CC(C)C[C@@H](NC(=O)[C@H](NC(=O)[C@@H](Cc1ccccc1)NC(=O)[C@@H](Cc1ccccc1)NC(=O)[C@@H](C)NC(=O)Cc1ccncc1)C(C)C)C(N)=O [PPI-741, 4-Pyridylacetyl-d(AFFVL)-nh2] ({Acetyl(4-pyridyl)}-[dA][dF][dF][dV][dL]-NH2)
Aβ1-40; 2.5 μM test compound
  ΔLag: 2.0

## h-d(FFFLV)-nh2 [PPI-533]
Aβ1-40; 0.5 μM test compound
  ΔLag 0.5 μM: 1.5
Aβ1-40
  ΔLag 5.0 μM: >7.5
  ΔLag […]: 3.8
Aβ1-40; Table X, 5 μM test compound
  ΔLag 5 μM: >6

## 4-Hydroxyphenylacetyl-d(LFFVL)-nh2 [PPI-649]
Aβ1-40; Table IX, 5 μM test compound
  ΔLag 5 μM: 5.1

## (±)-Mandelyl-d(LVFF)-nh2 [PPI-482 (isomer 1)]
Aβ1-40; [6]
  ΔLag 5 μM: 1.5

## Ac-d(LVFFA)-nh2 [PPI-501]
Aβ1-40; Table IX, 5 μM test compound
  ΔLag 5 μM: 1.4

## (±)-Mandelyl-(±)-mandelyl-d(LVFFA)-nh2 [PPI-518]
Aβ1-40; [6]
  ΔLag 5 μM: 1.5

## CC(C)C[C@@H](NC(=O)[C@H](NC(=O)[C@@H](Cc1ccccc1)NC(=O)[C@@H](Cc1ccccc1)NC(=O)[C@@H](Cc1cccnc1)NC(=O)c1ccc(O)cc1)C(C)C)C(N)=O [PPI-665, 4-Hydroxybenzoyl-d(Pal-FFVL)-nh2] ({Benzoyl(4-OH)}-[d3Pal][dF][dF][dV][dL]-NH2)
Aβ1-40; 0.5 μM test compound
  ΔLag: 1.5
Aβ1-40; 5 μM test compound
  ΔLag: 2

## Cholyl-LVFFA-oh [PPI-424]
Aβ1-40; [4]
  ΔLag 5 μM: >6.0

## 3-(2-Hydroxyphenyl)propionyl-d(AFFVL)-nh2 [PPI-610]
Aβ1-40; Table IX, 5 μM test compound
  ΔLag 5 μM: 4.5

## Pepstatin A [PPI-516, reference compound]
Aβ1-40; [6]
  ΔLag 5 μM: 1.6

## Lithocholyl-LVFFA-oh [PPI-425]
Aβ1-40; [4]
  ΔLag 5 μM: 1.4

## 2,4-Dihydroxybenzoyl-d(LVFF)-nh2 [PPI-486]
Aβ1-40; [6]
  ΔLag 5 μM: 1.2

## 3,4-Dihydroxycinnamoyl-d(LFFVL)-nh2 [PPI-593]
Aβ1-40; Table IX, 5 μM test compound
  ΔLag 5 μM: 2.0

## 4-Hydroxy-3-methoxycinnamoyl-d(LVFFA)-nh2 [PPI-555]
Aβ1-40; Table IX, 5 μM test compound
  ΔLag 5 μM: 1.7

## 3-Hydroxyphenylacetyl-d(LVFF)-nh2 [PPI-483]
Aβ1-40; Table IX, 5 μM test compound
  ΔLag 5 μM: 2.9
Aβ1-40; [6]
  ΔLag 5 μM: 2.2

## 3,4-Dihydroxycinnamoyl-d(LVFF)-nh2 [PPI-491]
Aβ1-40; [6]
  ΔLag 5 μM: 3.0

## h-d(AFFFL)-nh2 [PPI-598]
Aβ1-40; 0.5 μM test compound
  ΔLag 0.5 μM: 1.3
Aβ1-40
  ΔLag 5.0 μM: 6.3
  ΔLag […]: 2.0
Aβ1-40; Table X, 5 μM test compound
  ΔLag 5 μM: >6

## 5-Hydantoinacetyl-d(LVFFA)-nh2 [PPI-539]
Aβ1-40; Table IX, 5 μM test compound
  ΔLag 5 μM: 2.4

## Glycolyl-d(LVFFA)-nh2 [PPI-535]
Aβ1-40; Table IX, 5 μM test compound
  ΔLag 5 μM: 1.3
Aβ1-40; [6]
  ΔLag 5 μM: 1.4

## Benzoylpropanoyl-d(LVFF)-nh2 [PPI-489]
Aβ1-40; [6]
  ΔLag 5 μM: 1.2

## h-d(FFFFL)-nh2 [PPI-589]
Aβ1-40; 0.5 μM test compound
  ΔLag 0.5 μM: 1.5
Aβ1-40
  ΔLag 5.0 μM: >7.5
  ΔLag […]: 3.3
Aβ1-40; Table X, 5 μM test compound
  ΔLag 5 μM: >6

## CC(C)C[C@@H](NC(=O)c1ccc(O)cc1)C(=O)N[C@@H](C(=O)N[C@H](Cc1ccc(O)cc1)C(=O)N[C@H](Cc1ccc(O)cc1)C(=O)N[C@H](C)C(N)=O)C(C)C [PPI-775, 4-Hydroxybenzoyl-d(LVYYA)-nh2] ({Benzoyl(4-OH)}-[dL][dV][dY][dY][dA]-NH2)
Aβ1-40; 5 μM test compound
  ΔLag: 1

## CA-d(LV(IY)FA)-oh [PPI-462]
Aβ1-40; Table II, second series, different stock of Aβ1-40, 2 μM test compound
  ΔLag 2 μM: 2.7
Aβ1-40; Table II, second series, different stock of Aβ1-40, 3 μM test compound
  ΔLag 3 μM: >2.7
Aβ1-40; Table II, second series, different stock of Aβ1-40, 4 μM test compound
  ΔLag 4 μM: >2.7
Aβ1-40; Table II, second series, different stock of Aβ1-40, 5 μM test compound
  ΔLag 5 μM: >2.7

## CC(C)C[C@@H](NC(=O)c1ccc(O)cc1)C(=O)N[C@@H](C(=O)N[C@H](Cc1ccc(O)cc1)C(=O)N[C@H](Cc1ccccc1)C(=O)N[C@H](C)C(N)=O)C(C)C [PPI-774, 4-Hydroxybenzoyl-d(LVYFA)-nh2] ({Benzoyl(4-OH)}-[dL][dV][dY][dF][dA]-NH2)
Aβ1-40; 5 μM test compound
  ΔLag: 1

## DL-3-(4-Hydroxyphenyl)Lactyl-d(LVFFA)-nh2 [PPI-599]
Aβ1-40; Table IX, 5 μM test compound
  ΔLag 5 μM: 1.4

## 3,4-Dihydroxycinnamoyl-d(AFFVL)-nh2 [PPI-569]
Aβ1-40; Table IX, 5 μM test compound
  ΔLag 5 μM: 2.6

## CC(C)C[C@@H](NC(=O)[C@H](NC(=O)[C@@H](Cc1ccccc1)NC(=O)[C@@H](Cc1ccccc1)NC(=O)CN)C(C)C)C(N)=O [PPI-733, H-Glycyl-d(FFVL)-nh2] (H-G[dF][dF][dV][dL]-NH2)
Aβ1-40; 5 μM test compound
  ΔLag: 0

## D-3-Phenyllactyl-d(FFVL)-nh2 [PPI-612]
Aβ1-40; Table IX, 5 μM test compound
  ΔLag 5 μM: 2.1

## CA-d(AFFVL)-cooh [PPI-454]
Aβ1-40; Table I, 5 μM Aβ1-40, 2 μM test compound, ratio of lag time with compound to lag time of control
  ΔLag 2 μM: 4.0
Aβ1-40; [7]
  ΔLag 5 μM: >12

## 4-Hydroxycinnamoyl-d(AFFVL)-nh2 [PPI-587]
Aβ1-40; Table IX, 5 μM test compound
  ΔLag 5 μM: 3.7

## 2-Hydroxyphenylacetyl-d(LVFF)-nh2 [PPI-481]
Aβ1-40; [6]
  ΔLag 5 μM: 2.0

## 2-Formylphenoxyacetyl-d(LVFFA)-nh2 [PPI-554]
Aβ1-40; Table IX, 5 μM test compound
  ΔLag 5 μM: 2.6

## Hydrocinnamoyl-d(FFVL)-oh [PPI-619]
Aβ1-40; Table IX, 5 μM test compound
  ΔLag 5 μM: 2.0

## 2,4-Dihydroxybenzoyl-d(LVFFA)-nh2 [PPI-532]
Aβ1-40; Table IX, 5 μM test compound
  ΔLag 5 μM: 1.7

## h-d(AFFLL)-nh2 [PPI-577]
Aβ1-40; 0.5 μM test compound
  ΔLag 0.5 μM: 1.0
Aβ1-40
  ΔLag 5.0 μM: >7.5
  ΔLag […]: 1.3
Aβ1-40; Table X, 5 μM test compound
  ΔLag 5 μM: >6

## 3,5-Dihydroxy-2-naphthoyl-d(AFFVL)-nh2 [PPI-568]
Aβ1-40; Table IX, 5 μM test compound
  ΔLag 5 μM: >6

## 2-Hydroxycinnamoyl-d(LVFFA)-nh2 [PPI-536]
Aβ1-40; Table IX, 5 μM test compound
  ΔLag 5 μM: 1.4

## D-3-Phenyllactyl-d(FFFVL)-nh2 [PPI-635]
Aβ1-40; Table IX, 5 μM test compound
  ΔLag 5 μM: 2.5

## D-3-Phenyllactyl-d(AFFVL)-nh2 [PPI-607]
Aβ1-40; Table IX, 5 μM test compound
  ΔLag 5 μM: 3.1

## trans-Cinnamoyl-d(LVFF)-nh2 [PPI-490]
Aβ1-40; [5]
  ΔLag 5 μM: 1.0
